From ChEMBL document CHEMBL1641539 (Bioorg Med Chem Lett, 2011)

Assays:
[1] = target: T1, Serine/threonine-protein kinase 3 (Homo sapiens) (UniProt Q13188); assay: Inhibition of STK3 at 10 uM after 60 mins by TR-FRET assay
T1 sequence (whole entry): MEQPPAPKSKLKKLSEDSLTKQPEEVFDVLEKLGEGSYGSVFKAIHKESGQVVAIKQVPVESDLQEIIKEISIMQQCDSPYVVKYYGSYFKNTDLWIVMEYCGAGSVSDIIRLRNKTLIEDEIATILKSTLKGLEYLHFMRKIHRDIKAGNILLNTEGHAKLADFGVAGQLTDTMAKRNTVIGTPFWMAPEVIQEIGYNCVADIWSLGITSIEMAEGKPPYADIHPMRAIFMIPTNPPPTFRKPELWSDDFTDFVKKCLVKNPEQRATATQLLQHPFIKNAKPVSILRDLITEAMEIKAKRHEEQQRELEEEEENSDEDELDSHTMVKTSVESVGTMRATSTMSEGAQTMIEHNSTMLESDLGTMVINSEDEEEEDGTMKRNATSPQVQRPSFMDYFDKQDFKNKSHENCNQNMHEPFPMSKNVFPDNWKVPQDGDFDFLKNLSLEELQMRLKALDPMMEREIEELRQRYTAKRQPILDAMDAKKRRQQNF

[2] = target: T2, Dual specificity protein kinase TTK (Homo sapiens) (UniProt P33981); assay: Inhibition of TTK at 10 uM after 60 mins by TR-FRET assay
T2 sequence (whole entry): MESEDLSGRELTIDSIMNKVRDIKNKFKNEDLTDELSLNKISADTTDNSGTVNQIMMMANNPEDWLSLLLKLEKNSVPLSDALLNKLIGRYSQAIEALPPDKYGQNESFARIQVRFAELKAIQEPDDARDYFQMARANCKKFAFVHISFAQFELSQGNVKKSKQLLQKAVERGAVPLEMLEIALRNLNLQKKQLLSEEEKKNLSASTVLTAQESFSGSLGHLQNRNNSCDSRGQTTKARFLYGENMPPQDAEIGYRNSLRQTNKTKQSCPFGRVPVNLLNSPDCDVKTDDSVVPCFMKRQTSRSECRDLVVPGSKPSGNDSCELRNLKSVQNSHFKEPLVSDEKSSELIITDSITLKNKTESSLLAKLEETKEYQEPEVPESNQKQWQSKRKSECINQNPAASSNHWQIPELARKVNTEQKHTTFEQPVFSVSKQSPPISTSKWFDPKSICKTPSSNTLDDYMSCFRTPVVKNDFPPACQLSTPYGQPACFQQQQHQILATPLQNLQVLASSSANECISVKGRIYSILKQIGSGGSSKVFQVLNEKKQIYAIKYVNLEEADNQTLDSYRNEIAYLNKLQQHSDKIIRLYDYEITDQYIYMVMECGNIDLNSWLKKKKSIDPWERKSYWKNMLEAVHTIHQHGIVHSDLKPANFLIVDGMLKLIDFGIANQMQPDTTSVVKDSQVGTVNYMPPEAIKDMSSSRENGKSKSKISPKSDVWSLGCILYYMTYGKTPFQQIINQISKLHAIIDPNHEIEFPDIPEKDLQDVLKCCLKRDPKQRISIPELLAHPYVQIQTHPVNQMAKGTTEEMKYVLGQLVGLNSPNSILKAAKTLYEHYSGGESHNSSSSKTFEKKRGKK

[3] = target: T3, Serine/threonine-protein kinase Chk1 (Homo sapiens) (UniProt O14757); assay: Inhibition of CHEK1 at 10 uM after 60 mins by TR-FRET assay
T3 sequence (whole entry): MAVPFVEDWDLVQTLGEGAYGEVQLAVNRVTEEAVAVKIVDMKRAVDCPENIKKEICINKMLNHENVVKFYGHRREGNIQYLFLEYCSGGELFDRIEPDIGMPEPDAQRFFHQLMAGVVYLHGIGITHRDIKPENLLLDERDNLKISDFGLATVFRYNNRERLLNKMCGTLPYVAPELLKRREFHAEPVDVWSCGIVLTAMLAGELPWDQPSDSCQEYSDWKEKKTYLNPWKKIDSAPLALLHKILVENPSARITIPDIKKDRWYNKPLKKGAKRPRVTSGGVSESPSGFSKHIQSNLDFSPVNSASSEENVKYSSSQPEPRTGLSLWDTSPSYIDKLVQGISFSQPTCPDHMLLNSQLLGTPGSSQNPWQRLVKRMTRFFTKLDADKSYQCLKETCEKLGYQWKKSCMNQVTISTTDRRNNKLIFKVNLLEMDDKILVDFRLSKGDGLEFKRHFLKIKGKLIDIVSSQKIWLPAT

[4] = target: Serine/threonine-protein kinase PLK3 (Homo sapiens) (UniProt Q9H4B4); assay: Inhibition of PLK3 at 10 uM after 60 mins by TR-FRET assay
[5] = target: Mitogen-activated protein kinase 10 (Homo sapiens, UniProt P53779); assay: Inhibition of recombinant JNK3 after 60 mins by TR-FRET assay
[6] = target: Glycogen synthase kinase-3 beta (Homo sapiens) (UniProt P49841); assay: Inhibition of GSK3B at 10 uM after 60 mins by TR-FRET assay
[7] = Oxidative metabolic stability in human liver microsomes assessed as compound remaining at 2 uM after 30 mins; assay type: ADME, Microsome; details: read-out: Stability
[8] = Efflux ratio, ratio of permeability from apical to basolateral in MDCK2 cells over expressing MDR1 in presence of P-gp inhibitor to permeability from apical to basolateral in MDCK2 cells over expressing MDR1 in absence of P-gp inhibitor at 5 uM after 120 mins; assay type: ADME, cell-based, Canis lupus familiaris; details: dog, mdck-ii, 2 h
[9] = target: Proto-oncogene tyrosine-protein kinase receptor Ret (Homo sapiens) (UniProt P07949); assay: Inhibition of RET at 10 uM after 60 mins by TR-FRET assay
[10] = Oxidative metabolic stability in mouse liver microsomes assessed as compound remaining at 2 uM after 30 mins; assay type: ADME, Microsome; details: read-out: Stability
[11] = Apparent permeability of the compound from apical to basolateral direction in MDCK2 cells at 5 uM after 120 mins; assay type: ADME, cell-based, Canis lupus familiaris, MDCK-II; details: dog, MDCK
[12] = target: Serine/threonine-protein kinase 16 (Homo sapiens) (UniProt O75716); assay: Inhibition of STK16 at 10 uM after 60 mins by TR-FRET assay
[13] = target: Serine/threonine-protein kinase MARK2 (Homo sapiens) (UniProt Q7KZI7); assay: Inhibition of MARK2 at 10 uM after 60 mins by TR-FRET assay
[14] = target: Serine/threonine-protein kinase PAK 4 (Homo sapiens) (UniProt O96013); assay: Inhibition of PAK4 at 10 uM after 60 mins by TR-FRET assay
[15] = target: Tyrosine-protein kinase JAK1 (Homo sapiens) (UniProt P23458); assay: Inhibition of JAK1 at 10 uM after 60 mins by TR-FRET assay
[16] = Neuroprotective activity in human cortical neurons assessed as inhibition of amyloid-beta-induced toxicity after 2 to 3 days; assay type: functional; details: cortical neurone
[17] = target: Epidermal growth factor receptor (Homo sapiens) (UniProt P00533); assay: Inhibition of human EGFR at 10 uM after 60 mins by TR-FRET assay; details: values are per cent of control

Chain of Proto-oncogene tyrosine-protein kinase receptor Ret (Homo sapiens) (P07949 whole entry): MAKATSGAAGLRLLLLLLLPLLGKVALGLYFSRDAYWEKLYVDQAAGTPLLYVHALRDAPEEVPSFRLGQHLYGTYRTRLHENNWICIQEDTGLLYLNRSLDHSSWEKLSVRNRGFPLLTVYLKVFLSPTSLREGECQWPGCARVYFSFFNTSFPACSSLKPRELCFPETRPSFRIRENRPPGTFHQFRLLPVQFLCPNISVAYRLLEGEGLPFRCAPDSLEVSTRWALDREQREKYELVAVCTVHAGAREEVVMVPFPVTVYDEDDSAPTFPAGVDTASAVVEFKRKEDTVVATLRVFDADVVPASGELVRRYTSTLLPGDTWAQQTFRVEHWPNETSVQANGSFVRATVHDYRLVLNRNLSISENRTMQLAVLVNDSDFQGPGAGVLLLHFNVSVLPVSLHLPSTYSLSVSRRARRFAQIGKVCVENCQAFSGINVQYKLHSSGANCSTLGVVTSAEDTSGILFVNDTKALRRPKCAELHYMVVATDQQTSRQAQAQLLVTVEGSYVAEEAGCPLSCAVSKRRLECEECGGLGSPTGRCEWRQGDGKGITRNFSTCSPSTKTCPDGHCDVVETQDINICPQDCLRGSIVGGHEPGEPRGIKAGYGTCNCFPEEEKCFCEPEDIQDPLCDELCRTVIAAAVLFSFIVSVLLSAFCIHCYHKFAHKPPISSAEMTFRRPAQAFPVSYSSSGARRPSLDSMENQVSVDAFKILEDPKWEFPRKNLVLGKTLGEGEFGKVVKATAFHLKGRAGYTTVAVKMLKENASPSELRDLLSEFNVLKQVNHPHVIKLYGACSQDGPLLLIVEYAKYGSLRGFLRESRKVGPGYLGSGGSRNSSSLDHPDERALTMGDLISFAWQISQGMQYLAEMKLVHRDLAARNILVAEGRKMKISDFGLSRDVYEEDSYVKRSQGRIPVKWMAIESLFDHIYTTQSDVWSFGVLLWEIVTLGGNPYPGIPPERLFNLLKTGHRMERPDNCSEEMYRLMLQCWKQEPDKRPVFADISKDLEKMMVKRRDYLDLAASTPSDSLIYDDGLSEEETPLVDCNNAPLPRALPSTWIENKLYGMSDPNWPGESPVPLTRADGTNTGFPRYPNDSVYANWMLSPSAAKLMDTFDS
Chain of Mitogen-activated protein kinase 10 (P53779 whole entry): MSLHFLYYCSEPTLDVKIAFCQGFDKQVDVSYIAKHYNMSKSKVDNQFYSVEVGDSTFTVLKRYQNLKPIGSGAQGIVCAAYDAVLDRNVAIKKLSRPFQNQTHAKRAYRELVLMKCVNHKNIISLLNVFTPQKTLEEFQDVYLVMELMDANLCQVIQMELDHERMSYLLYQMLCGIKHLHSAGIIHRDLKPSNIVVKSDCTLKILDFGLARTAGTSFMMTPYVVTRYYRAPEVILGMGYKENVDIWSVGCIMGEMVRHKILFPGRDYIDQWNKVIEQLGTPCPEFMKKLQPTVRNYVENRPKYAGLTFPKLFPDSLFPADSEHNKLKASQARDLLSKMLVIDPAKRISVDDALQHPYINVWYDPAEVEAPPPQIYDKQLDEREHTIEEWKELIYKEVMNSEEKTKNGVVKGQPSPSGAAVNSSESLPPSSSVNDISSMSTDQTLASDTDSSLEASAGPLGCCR
Chain of Serine/threonine-protein kinase PLK3 (Homo sapiens) (Q9H4B4 whole entry, looked up): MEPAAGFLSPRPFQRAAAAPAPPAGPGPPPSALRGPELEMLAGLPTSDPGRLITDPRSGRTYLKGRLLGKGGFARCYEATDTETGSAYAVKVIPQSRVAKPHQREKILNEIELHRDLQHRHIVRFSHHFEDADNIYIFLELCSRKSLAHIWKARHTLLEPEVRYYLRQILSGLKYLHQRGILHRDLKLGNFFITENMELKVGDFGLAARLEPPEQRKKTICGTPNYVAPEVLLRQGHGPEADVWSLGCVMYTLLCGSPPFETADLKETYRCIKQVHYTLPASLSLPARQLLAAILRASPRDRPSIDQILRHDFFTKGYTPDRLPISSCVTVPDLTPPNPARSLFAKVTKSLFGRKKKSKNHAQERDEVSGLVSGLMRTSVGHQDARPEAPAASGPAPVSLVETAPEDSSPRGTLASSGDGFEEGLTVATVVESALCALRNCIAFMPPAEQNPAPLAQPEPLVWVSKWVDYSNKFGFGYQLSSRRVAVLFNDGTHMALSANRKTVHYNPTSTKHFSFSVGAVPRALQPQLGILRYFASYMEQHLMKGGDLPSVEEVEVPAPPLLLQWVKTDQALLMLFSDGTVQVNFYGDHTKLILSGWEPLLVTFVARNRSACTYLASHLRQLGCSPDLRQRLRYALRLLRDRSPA
Chain of Serine/threonine-protein kinase PAK 4 (Homo sapiens) (O96013 whole entry, looked up): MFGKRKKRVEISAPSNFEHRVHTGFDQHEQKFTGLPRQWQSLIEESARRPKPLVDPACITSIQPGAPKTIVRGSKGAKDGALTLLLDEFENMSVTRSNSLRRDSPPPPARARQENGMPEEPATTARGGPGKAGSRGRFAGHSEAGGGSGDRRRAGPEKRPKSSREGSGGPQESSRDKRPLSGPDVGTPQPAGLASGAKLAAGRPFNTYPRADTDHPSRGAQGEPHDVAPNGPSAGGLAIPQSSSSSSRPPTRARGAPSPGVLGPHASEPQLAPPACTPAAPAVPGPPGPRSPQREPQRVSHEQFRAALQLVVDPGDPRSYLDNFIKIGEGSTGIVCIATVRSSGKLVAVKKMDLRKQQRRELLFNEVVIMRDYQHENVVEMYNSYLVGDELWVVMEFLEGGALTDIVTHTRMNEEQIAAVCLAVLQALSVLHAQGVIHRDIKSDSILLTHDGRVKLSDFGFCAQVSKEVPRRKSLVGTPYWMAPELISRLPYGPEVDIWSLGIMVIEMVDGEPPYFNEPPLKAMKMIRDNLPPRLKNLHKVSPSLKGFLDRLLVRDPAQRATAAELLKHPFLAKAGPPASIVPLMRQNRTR
Chain of Serine/threonine-protein kinase MARK2 (Homo sapiens) (Q7KZI7 whole entry): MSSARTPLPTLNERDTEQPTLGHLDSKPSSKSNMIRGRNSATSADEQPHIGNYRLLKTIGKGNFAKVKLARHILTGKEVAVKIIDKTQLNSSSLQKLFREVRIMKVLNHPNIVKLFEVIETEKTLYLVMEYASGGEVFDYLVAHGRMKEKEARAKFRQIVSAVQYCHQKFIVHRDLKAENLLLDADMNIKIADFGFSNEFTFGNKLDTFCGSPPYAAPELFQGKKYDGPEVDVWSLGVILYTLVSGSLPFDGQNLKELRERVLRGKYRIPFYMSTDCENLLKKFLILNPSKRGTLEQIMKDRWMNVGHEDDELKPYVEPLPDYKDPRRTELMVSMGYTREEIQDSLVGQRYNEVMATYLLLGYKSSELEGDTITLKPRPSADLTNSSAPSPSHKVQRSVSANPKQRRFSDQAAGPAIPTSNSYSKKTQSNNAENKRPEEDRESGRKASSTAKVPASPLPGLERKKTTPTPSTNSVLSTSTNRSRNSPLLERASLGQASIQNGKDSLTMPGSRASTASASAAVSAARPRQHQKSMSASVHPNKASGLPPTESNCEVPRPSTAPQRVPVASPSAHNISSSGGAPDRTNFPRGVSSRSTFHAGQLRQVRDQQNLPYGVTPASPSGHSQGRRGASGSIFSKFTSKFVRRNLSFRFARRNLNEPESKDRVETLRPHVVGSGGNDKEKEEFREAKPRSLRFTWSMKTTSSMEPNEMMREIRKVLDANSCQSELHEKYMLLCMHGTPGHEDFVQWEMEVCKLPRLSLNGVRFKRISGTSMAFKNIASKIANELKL
Chain of Serine/threonine-protein kinase 16 (Homo sapiens) (O75716 whole entry): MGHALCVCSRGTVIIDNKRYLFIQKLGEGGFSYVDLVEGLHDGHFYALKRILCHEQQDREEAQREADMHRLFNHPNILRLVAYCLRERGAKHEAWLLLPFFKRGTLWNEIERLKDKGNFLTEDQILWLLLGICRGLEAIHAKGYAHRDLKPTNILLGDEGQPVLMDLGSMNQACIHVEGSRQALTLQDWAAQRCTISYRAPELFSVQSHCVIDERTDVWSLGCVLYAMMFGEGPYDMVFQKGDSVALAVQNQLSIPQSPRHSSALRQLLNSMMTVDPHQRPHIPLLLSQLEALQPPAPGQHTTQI
Chain of Glycogen synthase kinase-3 beta (Homo sapiens) (P49841 whole entry, looked up): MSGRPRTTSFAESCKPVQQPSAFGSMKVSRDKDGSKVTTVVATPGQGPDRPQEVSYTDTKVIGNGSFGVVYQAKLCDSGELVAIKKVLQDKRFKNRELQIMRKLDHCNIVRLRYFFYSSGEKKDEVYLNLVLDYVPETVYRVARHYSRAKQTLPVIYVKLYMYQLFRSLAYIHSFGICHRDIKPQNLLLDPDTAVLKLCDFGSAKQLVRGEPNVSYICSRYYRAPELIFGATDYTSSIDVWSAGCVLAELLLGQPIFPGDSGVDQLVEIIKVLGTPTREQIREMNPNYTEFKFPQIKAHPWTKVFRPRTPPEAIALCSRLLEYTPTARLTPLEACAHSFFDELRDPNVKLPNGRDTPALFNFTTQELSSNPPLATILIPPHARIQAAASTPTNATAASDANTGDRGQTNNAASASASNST

Row | inhibition [1] [%] | inhibition [2] [%] | inhibition [3] [%] | inhibition [4] [%] | IC50 [5] [nM] | inhibition [6] [%] | remaining at 0.5 h, 2 µM [7] [%] | Ratio [8] | inhibition [9] [%] | remaining at 0.5 h, 2 µM [10] [%] | Papp A→B at 2 h, 5 µM [11] [×10⁻⁶ cm/s] | inhibition [12] [%] | inhibition [13] [%] | inhibition [14] [%] | inhibition [15] [%] | residual activity [17] [%] | SMILES | EC50 [16] [nM]
1 | -10 | 3 | -4 | 32 | – | 15 | – | – | 10 | – | – | – | 0 | 27 | 1 | – | O=c1n(C2CCOCC2)nc(-c2ccnc(NC3CCCCC3)c2)n1-c1ccc2ccccc2c1 | –
2 | -4 | 44 | – | 13 | 85 | 73 | 73 | 12 | 11 | 12 | 15.7 | 38 | 4 | – | -3 | – | O=c1[nH]nc(-c2ccnc(NC3CCOCC3)c2)n1-c1ccc2ccccc2c1 | –
3 | 5 | – | -9 | -5 | 29 | 13 | 2 | – | 3 | 48 | 8.1 | – | 0 | -1 | -4 | – | O=c1n(Cc2ccncc2)nc(-c2ccnc(NC3CCCCC3)c2)n1-c1ccc2ccccc2c1 | 12000
4 | -9 | 10 | -5 | 17 | 24 | 38 | 57 | 2.6 | 4 | 2.6 | 0.9 | -1 | 1 | -2 | 1 | – | O=c1[nH]nc(-c2ccnc(NC3CCCCC3)c2)n1-c1ccc2ccccc2c1 | > 50000

The remaining lines, values behind:

Row | SMILES | inhibition [1] [%] | inhibition [2] [%] | inhibition [3] [%] | inhibition [4] [%] | IC50 [5] [nM] | inhibition [6] [%] | remaining at 0.5 h, 2 µM [7] [%] | Ratio [8] | inhibition [9] [%] | remaining at 0.5 h, 2 µM [10] [%] | Papp A→B at 2 h, 5 µM [11] [×10⁻⁶ cm/s] | inhibition [12] [%] | inhibition [13] [%] | inhibition [14] [%] | inhibition [15] [%] | residual activity [17] [%] | EC50 [16] [nM]
5 | O=c1n(Cc2ccccn2)nc(-c2ccnc(NC3CCOCC3)c2)n1-c1ccc2ccccc2c1 | -9 | 0 | -9 | 5 | 54 | 7 | 40 | 1.4 | -1 | 1.4 | 18.5 | -9 | -2 | – | – | – | –
6 | O=c1[nH]nc(-c2ccnc(NC3CCCOC3)c2)n1-c1ccc2ccccc2c1 (stereo unspecified) | -5 | 30 | -9 | 79 | 32 | 81 | – | – | 37 | – | – | 21 | 1 | 69 | 1 | – | –
7 | S=c1[nH]nc(-c2ccncc2)n1-c1ccc2ccccc2c1 | – | – | – | – | – | – | – | – | – | – | – | – | – | – | – | 90 | –
